Experimental data taken from patent EP4603105A1, “PHARMACEUTICAL COMPOSITION CONTAINING CYCLIC COMPOUND HAVING SELECTIVE KRAS INHIBITORY EFFECT AGAINST HRAS AND NRAS” (CHUGAI SEIYAKU KABUSHIKI KAISHA, priority 2022, dated 2024).
Where a SMILES comes first, the peptide text is derived from it. Bridges are numbered along the chain shown (N, C = ends). [ ]: non-standard residue; d: D form. The star is where a group is joined. hPhe(3-Cl-4-CF3) = N[C@@H](CCc1ccc(C(F)(F)F)c(Cl)c1)C(=O)O; NPrPhe(4-CF3) = CCCN[C@@H](Cc1ccc(C(F)(F)F)cc1)C(=O)O; NMeGly(cPent) = CN[C@H](C(=O)O)C1CCCC1; NMeL = CN[C@@H](CC(C)C)C(=O)O; Morpholide = C1CN(*)CCO1; Aze = O=C(O)[C@@H]1CCN1; Ac4c = NC1(C(=O)O)CCC1; Sar = CNCC(=O)O

Columns and labels:
[1] = target: GDP-bound KRAS wild-type protein (Homo sapiens, UniProt P01116); test: Binding to KRAS by surface plasmon resonance (SPR), dissociation constant KD
Method in brief: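 Recombinant RAS proteins bearing a biotinylated Avi tag and loaded with GDP served as the captured ligand, recaptured fresh every cycle. Binding responses were referenced to an uncoated surface and a buffer-only blank cycle. Dissociation constants were obtained by 1:1 model fitting at 30°C.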

[2] = target: GDP-bound NRAS wild-type protein (Homo sapiens, UniProt P01111); test: Binding to NRAS by surface plasmon resonance (SPR), KD and KD ratio to KRAS
Method in brief: (§1)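 GDP-loaded biotinylated Avi-tag RAS proteins (E. coli-expressed) captured on a Biotin CAPture chip at ~100–300 RU; single-cycle kinetics at 30°C, 100 µL/min, 75 s injections of rising compound concentrations. HBS pH 7.4 running buffer with 1 mM DTT, 10 mM MgCl2, 10 µM GDP, 4% DMSO. KD from 1:1 binding fit.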

HRAS wild-type protein = HRAS wild-type protein (Homo sapiens, UniProt P01112); test: Binding to HRAS by surface plasmon resonance (SPR), KD and KD ratio to KRAS
Method in brief: as §1

[3] = tested on: human lung cancer strain NCI-H441; type: cell-based
Method in brief: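 Readout: […] after the ATP-based reagent. Compound: serial dilutions in dimethyl sulfoxide.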

[4] = Single Cycle Kinetics, 1:1 binding model
[5] = ratio of the KD value with respect to GDP-bound NRAS wild-type protein to the KD value with respect to KRAS
[6] = ratio of the KD value with respect to HRAS wild-type protein to the KD value with respect to KRAS
[7] = ratio of KD for GDP-bound NRAS wild-type protein to KD for KRAS
[8] = ratio of KD for HRAS wild-type protein to KD for KRAS

Chain of GDP-bound KRAS wild-type protein (P01116 1-188 isoform P01116-2): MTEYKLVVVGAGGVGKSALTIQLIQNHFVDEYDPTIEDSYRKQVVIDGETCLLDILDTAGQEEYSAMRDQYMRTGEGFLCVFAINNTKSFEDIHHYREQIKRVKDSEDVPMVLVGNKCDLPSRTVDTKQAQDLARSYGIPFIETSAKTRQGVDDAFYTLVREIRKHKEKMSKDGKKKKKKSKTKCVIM
Chain of HRAS wild-type protein (P01112 whole entry): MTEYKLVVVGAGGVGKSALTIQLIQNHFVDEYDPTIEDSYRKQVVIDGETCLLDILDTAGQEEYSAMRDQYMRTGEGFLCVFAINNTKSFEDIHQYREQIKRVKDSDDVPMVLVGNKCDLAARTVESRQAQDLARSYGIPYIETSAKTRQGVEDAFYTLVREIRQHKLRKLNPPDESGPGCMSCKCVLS
Chain of GDP-bound NRAS wild-type protein (P01111 whole entry): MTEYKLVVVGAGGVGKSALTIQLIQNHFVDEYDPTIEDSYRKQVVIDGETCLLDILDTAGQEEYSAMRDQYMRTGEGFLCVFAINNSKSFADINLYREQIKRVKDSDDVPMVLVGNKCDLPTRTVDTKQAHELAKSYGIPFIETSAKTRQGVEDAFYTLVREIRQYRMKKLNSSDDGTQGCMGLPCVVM

| SMILES | Kd [1, 4] [nM] | NRAS /KRAS [2, 5] | HRAS /KRAS (HRAS wild-type protein; [6]) | IC50 [3] [nM] | Kd ([1]; Single Cycle Kinetics) [nM] | NRAS /KRAS [2, 7] | HRAS /KRAS (HRAS wild-type protein; [8]) | Kd ([1]; 1:1 binding model) [nM] |
| --- | --- | --- | --- | --- | --- | --- | --- | --- |
| CCC[C@H]1C(=O)N[C@@H](C2CCCC2)C(=O)N(C)CC(=O)N(C)[C@H]2C/C=C\CCN(C2=O)[C@@H](Cc2ccc(C)cc2)C(=O)N(C)CC(=O)N[C@@H](CCc2ccc(C(F)(F)F)c(Cl)c2)C(=O)N2C[C@H](OCC)C[C@H]2C(=O)NC2(CC(C)(C)C2)C(=O)N(C)[C@@H](CC(C)C)C(=O)N(C)[C@H](C(=O)N(C)C)CC(=O)N1C [PP2190] | 0.91 | A (a compound having 10 or more and less than 20 is denoted as A) | A (a compound having 10 or more and less than 20 is denoted as A) | 84.5 |  |  |  |  |
| CCO[C@@H]1C[C@H]2C(=O)NC3(CCC3)C(=O)N(C)[C@@H](C3CCCC3)C(=O)N(C)[C@H](C(=O)N3C4CCC3COC4)CC(=O)N(C)[C@@H](CC)C(=O)N[C@@H]([C@@H](C)CC)C(=O)N(C)CC(=O)N(C)[C@H]3C/C=C\CCN(C3=O)[C@@H](Cc3ccc(C(F)(F)F)cc3)C(=O)N(C)CC(=O)N[C@@H](CCc3cc(F)c(C(F)(F)F)c(F)c3)C(=O)N2C1 [PP1093] |  |  |  | 78.7 | 0.58 | AA (a compound having 20 or more is denoted as AA) | A (a compound having 10 or more and less than 20 is denoted as A) |  |
| CCO[C@@H]1C[C@H]2C(=O)NC3(CC(C)(C)C3)C(=O)N(C)[C@@H](C3CCCC3)C(=O)N(C)[C@H](C(=O)N(C)CC)CC(=O)N(C)[C@H]3C/C=C/c4ccc(cc4)C[C@@H](C(=O)N(C)CC(=O)N[C@@H](CCc4ccc(Cl)c(Cl)c4)C(=O)N2C1)N1CC/C=C\C[C@@H](C1=O)N(C)C(=O)CN(C)C(=O)[C@H]([C@@H](C)CC)NC3=O [PP3056] |  |  |  | 151 |  | A (a compound having 10 or more and less than 20 is denoted as A) | A (a compound having 10 or more and less than 20 is denoted as A) | 1.4 |
| CCO[C@@H]1C[C@H]2C(=O)NC3(CC(C)(C)C3)C(=O)N(C)[C@@H](C3CCCC3)C(=O)N(C)[C@H](C(=O)N(C)CC)CC(=O)N(C)[C@@H](CC(C)C)C(=O)N[C@@H]([C@@H](C)CC)C(=O)N(C)CC(=O)N(C)[C@H]3C/C=C\CCN(C3=O)[C@@H](Cc3ccc(C(F)F)cc3)C(=O)N(C)CC(=O)N[C@@H](CCc3ccc(C4CC4)c(Cl)c3)C(=O)N2C1 [PP3155] |  |  |  | 62.5 |  | A (a compound having 10 or more and less than 20 is denoted as A) | A (a compound having 10 or more and less than 20 is denoted as A) | 0.64 |
| CC[C@H](C)[C@@H]1NC(=O)[C@H](CC(C)C)N(C)C(=O)C[C@@H](C(=O)N2CCOCC2)N(C)C(=O)[C@H](C2CCCC2)N(C)C(=O)[C@](C)(CC)NC(=O)[C@@H]2CCCN2C(=O)[C@H](CCc2cc(F)c(C(F)(F)F)c(F)c2)NC(=O)CN(C)C(=O)[C@H](Cc2ccc(C(F)(F)F)cc2)N2CCCCC[C@@H](C2=O)N(C)C(=O)CN(C)C1=O [PP0500] | 18 | B (a compound having 3 or more and less than 10 is denoted as B) | B (a compound having 3 or more and less than 10 is denoted as B) | 963 |  |  |  |  |
| CCO[C@@H]1C[C@H]2C(=O)NC3(CC(C)(C)C3)C(=O)N(C)[C@@H](C(CC)CC)C(=O)N(C)[C@H](C(=O)N(C)C)CC(=O)N(C)[C@@H](C(C)C)C(=O)N[C@@H]([C@@H](C)CC)C(=O)N(C)CC(=O)N(C)[C@H]3C/C=C\CCN(C3=O)[C@@H](Cc3ccc(C)cc3)C(=O)N(C)CC(=O)N[C@@H](CCc3ccc(C(F)(F)F)c(Cl)c3)C(=O)N2C1 [PP2158] | 0.79 | AA (a compound having 20 or more is denoted as AA) | A (a compound having 10 or more and less than 20 is denoted as A) | 25.4 |  |  |  |  |
| CC[C@H](C)[C@@H]1NC(=O)[C@H](CC(C)C)N(C)C(=O)C[C@@H](C(=O)N(C)C)N(C)C(=O)[C@H](C2CCCC2)N(C)C(=O)C2(CCCC2)NC(=O)[C@@H]2CCCN2C(=O)[C@H](CCc2ccc(C(F)(F)F)c(Cl)c2)NC(=O)CN(C)C(=O)[C@H](Cc2ccc(C(F)(F)F)cc2)N2CC=CCOC[C@H](C2=O)N(C)C(=O)CN(C)C1=O [PP0628] | 2.4 | C (A compound having a KD ratio of 0.1 or more and less than 3 is denoted as C) | C (A compound having a KD ratio of 0.1 or more and less than 3 is denoted as C) | 46.3 |  |  |  |  |
| CCO[C@@H]1C[C@H]2C(=O)NC3(CC(C)(C)C3)C(=O)N(C)[C@@H](C3CCCC3)C(=O)N(C)[C@H](C(=O)N(C)C)CC(=O)N(C)[C@@H]([C@H](C)OC)C(=O)N[C@@H]([C@@H](C)CC)C(=O)N(C3CC3)CC(=O)N(C)[C@H]3C/C=C\CCN(C3=O)[C@@H](Cc3ccc(C)cc3)C(=O)N(C)CC(=O)N[C@@H](CCc3cc(F)c(C(F)(F)F)c(F)c3)C(=O)N2C1 [PP3193] |  |  |  | 21.1 |  | A (a compound having 10 or more and less than 20 is denoted as A) | A (a compound having 10 or more and less than 20 is denoted as A) | 0.35 |
| CC[C@H](C)[C@@H]1NC(=O)[C@H](CC2CC2)N(C)C(=O)C[C@@H](C(=O)N(C)C)N(C)C(=O)[C@H](C2CCCC2)N(C)C(=O)C2(CC(C)(C)C2)NC(=O)[C@@H]2C[C@@H](C)CN2C(=O)[C@H](CCc2ccc(C(F)(F)F)c(OC)c2)NC(=O)CN(C)C(=O)[C@H](Cc2ccc(C)cc2)N2CC/C=C\C[C@@H](C2=O)N(C)C(=O)CN(C)C1=O [PP1901] | 0.098 | A (a compound having 10 or more and less than 20 is denoted as A) | B (a compound having 3 or more and less than 10 is denoted as B) | 7.6 |  |  |  |  |
| CCCN1C(=O)CN(C)C(=O)[C@@H]2CCN2C(=O)[C@H]([C@@H](C)CC)NC(=O)[C@H](CC(C)C)N(C)C(=O)C[C@@H](C(=O)N2CCOCC2)NC(=O)[C@H](C2CCCC2)N(C)C(=O)C2(CCC2)NC(=O)[C@@H]2CCCN2C(=O)[C@H](CCc2ccc(C(F)(F)F)c(Cl)c2)NC(=O)CN(C)C(=O)[C@@H]1Cc1ccc(C(F)(F)F)cc1 [PP0338] ([NMeL]I[Aze][Sar][NPrPhe(4-CF3)][Sar][hPhe(3-Cl-4-CF3)]P[Ac4c][NMeGly(cPent)]D-Morpholide; lactam N-11) |  |  |  | 296 |  | B (a compound having 3 or more and less than 10 is denoted as B) | B (a compound having 3 or more and less than 10 is denoted as B) | 3.6 |
| CCO[C@@H]1C[C@H]2C(=O)NC3(CC(C)(C)C3)C(=O)N(C)[C@@H](C3CCCC3)C(=O)N(C)[C@H](C(=O)N(C)CC)CC(=O)N(C)[C@@H]([C@@H](C)OC)C(=O)N[C@@H]([C@@H](C)CC)C(=O)N(C3CC3)CC(=O)N(C)[C@H]3C/C=C\CCN(C3=O)[C@@H](Cc3ccc(C)cc3)C(=O)N(C)CC(=O)N[C@@H](CCc3ccc(C(F)(F)F)c(OC)c3)C(=O)N2C1 [PP3182] |  |  |  | 76.6 |  | A (a compound having 10 or more and less than 20 is denoted as A) | A (a compound having 10 or more and less than 20 is denoted as A) | 0.87 |
| CCO[C@@H]1C[C@H]2C(=O)NC3(CCC3)C(=O)N(C)[C@@H](C3CCCC3)C(=O)N(C)[C@H](C(=O)N3CCOCC3)CC(=O)N(C)[C@@H](Cc3cccnc3)C(=O)N[C@@H]([C@@H](C)CC)C(=O)N(C)CC(=O)N(C)[C@H]3CCCCN(C3=O)[C@@H](Cc3ccc(C(F)(F)F)cc3)C(=O)N(C)CC(=O)N[C@@H](CCc3cc(F)c(C(F)(F)F)c(F)c3)C(=O)N2C1 [PP0718] | 0.029 | C (A compound having a KD ratio of 0.1 or more and less than 3 is denoted as C) | B (a compound having 3 or more and less than 10 is denoted as B) | 42.3 |  |  |  |  |
| CCO[C@@H]1C[C@H]2C(=O)NC3(CC(C)(C)C3)C(=O)N(C)[C@@H](C3CCCC3)C(=O)N(C)[C@H](C(=O)N(C)CC)CC(=O)N(C)[C@@H](CC(C)C)C(=O)N[C@@H]([C@@H](C)CC)C(=O)N(C)CC(=O)N(C)[C@H]3C/C=C\CCN(C3=O)[C@@H](Cc3ccc(C(F)F)cc3)C(=O)N(C)CC(=O)N[C@@H](CCc3ccc(CC)c(F)c3)C(=O)N2C1 [PP3157] |  |  |  | 88.5 |  | A (a compound having 10 or more and less than 20 is denoted as A) | A (a compound having 10 or more and less than 20 is denoted as A) | 2.1 |
| CC[C@H](C)[C@@H]1NC(=O)[C@H](CC(C)C)N(C)C(=O)C[C@@H](C(=O)N2CCOCC2)N(C)C(=O)[C@H](C2CCCC2)N(C)C(=O)C2(CCCC2)NC(=O)[C@@H]2CCCN2C(=O)[C@H](CCc2ccc(C(F)(F)F)c(Cl)c2)NC(=O)CN(C)C(=O)[C@H](Cc2ccc(F)cc2)N2C/C=C\CC[C@@H](C2=O)N(C)C(=O)CN(C)C1=O [PP0607] | 0.97 | C (A compound having a KD ratio of 0.1 or more and less than 3 is denoted as C) | B (a compound having 3 or more and less than 10 is denoted as B) | 119 |  |  |  |  |
